These are literature values, as cited in US20250019557A1, “INK SET AND INKJET RECORDING APPARATUS” (KYOCERA Document Solutions Inc., priority 2023, published 2025).

For the data set the following is noted: octanol/water partition coefficient; literature value, or calculated where none exists.

In the case of `CC(CCO)CCO` [3-Methyl-1,5-pentanediol], the LogP is reported as 0.35.
As for `OCCCO` [1,3-Propanediol], the LogP is reported as −1.04.
For the molecule `CCCCOCCOCCOCCO` [Triethylene glycol monobutyl ether], the LogP is 0.44.
`CC(O)CO` (stereo not shown) [1,2-Propanediol]: the LogP is given as −0.92.

By LogP is commonly meant the decadic logarithm of the partition coefficient of the neutral form, usually between octanol and water.
